# Reference: PMC11645656, “MRGPRX4 mediates phospho-drug associated pruritus in a humanized mouse model” (Science translational medicine, 2024)
# Several values for one entry are separate records, joined by “and”; a condition that tells them apart may be missing. Equal entries are not always repeated.
# Molecular target: T1, MRGPRX4 (S83) (Homo sapiens, UniProt Q96LA9, L83S)
# T1 construct: expressed in transfected cells
# Experiment: EC50 determination, intracellular calcium mobilization in MRGPRX4 stably expressed HEK293 cells (FLIPR Calcium 5, Flexstation-3)
# Type: cell-based
# Design: Fig. 1D dose-response, calcium mobilization response (individual replicate) / calcium mobilization response (Fig. 1D dose-response raw data): unit not given here
# Details: for calcium mobilization response (Fig. 1D dose-response raw data): individual replicate values
# Protocol: HEK293 cells and MRGPRX4 stably expressed HEK293 cells were seeded in 100 μl culture media on 96-well plates at a density of 40,000 cells per well and incubated overnight. The next day, the media were replaced with a dye-loading solution from the FLIPR Calcium 5 assay kit (Molecular Devices), diluted in Hank's Balanced Salt Solution (HBSS) with 20 mM HEPES, pH 7.4. After 1 h of incubation at 37°C, cells were allowed to recover for 10 min in the dark at room temperature prior to performing intracellular calcium mobilization assay in a Flexstation-3 instrument with SoftMax®Pro 7.1 software (Molecular Devices). Serial concentrations of tested drugs were prepared in HBSS/HEPES solution at 3X concentration. […] Compounds were tested in triplicates and the signals were averaged. Responses were determined by subtracting the minimum signal (at the baseline before adding the drug) from the maximum signal (obtained after drug stimulation). Four-parameter logistic (4PL) curve fit was used to plot the dose-response curves. […] Both dose-response curve fitting and EC50s calculation are computed with GraphPad Prism software (version: 6.o or above).
# T1 sequence (Q96LA9 whole entry L83S): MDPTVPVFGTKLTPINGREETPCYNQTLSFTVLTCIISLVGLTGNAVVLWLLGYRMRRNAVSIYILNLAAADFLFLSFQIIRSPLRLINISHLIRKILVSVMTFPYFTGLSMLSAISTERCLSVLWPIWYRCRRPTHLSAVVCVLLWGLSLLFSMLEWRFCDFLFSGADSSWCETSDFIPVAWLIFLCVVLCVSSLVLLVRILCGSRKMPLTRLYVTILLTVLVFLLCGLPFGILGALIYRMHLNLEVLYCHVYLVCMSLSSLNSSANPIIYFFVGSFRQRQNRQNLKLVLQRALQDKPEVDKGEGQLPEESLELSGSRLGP
SMILES,calcium mobilization response (Fig. 1D dose-response raw data) (concentration 4.88281e-7 M),calcium mobilization response (Fig. 1D dose-response raw data) (concentration 9.76563e-7 M),calcium mobilization response (Fig. 1D dose-response raw data) (concentration 1.95313e-6 M),calcium mobilization response (Fig. 1D dose-response raw data) (concentration 3.90625e-6 M),calcium mobilization response (Fig. 1D dose-response raw data) (concentration 7.8125e-6 M),calcium mobilization response (Fig. 1D dose-response raw data) (concentration 1.5625e-5 M),calcium mobilization response (Fig. 1D dose-response raw data) (concentration 3.125e-5 M),calcium mobilization response (Fig. 1D dose-response raw data) (concentration 6.25e-5 M),calcium mobilization response (Fig. 1D dose-response raw data) (concentration 0.00025 M),calcium mobilization response (Fig. 1D dose-response raw data) (concentration 0.0005 M),other results
C[C@@H]1C[C@H]2[C@@H]3C[C@@H](O)C4=CC(=O)C=C[C@]4(C)[C@@]3(F)[C@@H](O)C[C@]2(C)[C@@]1(O)C(=O)CO [6b-hydroxy Dexamethasone],,,,,,,,,,,"Fig. 1D dose-response, calcium mobilization response (individual replicate) (Concentration 9.76563e-7 M): -11.185 and -2.950 and -9.064 and -1.271 and -4.466; Fig. 1D dose-response, calcium mobilization response (individual replicate) (Concentration 1.95313e-6 M): -4.343 and -9.147 and -5.890 and -0.806 and -7.669; Fig. 1D dose-response, calcium mobilization response (individual replicate) (Concentration 3.90625e-6 M): -10.884 and -6.013 and -8.580 and -8.133 and -5.676; Fig. 1D dose-response, calcium mobilization response (individual replicate) (Concentration 7.8125e-6 M): -1.007 and -6.768 and -0.871 and -6.992 and -1.487; Fig. 1D dose-response, calcium mobilization response (individual replicate) (Concentration 1.5625e-5 M): -3.580 and -12.887 and -7.336 and -12.885 and -3.031; Fig. 1D dose-response, calcium mobilization response (individual replicate) (Concentration 3.125e-5 M): -6.945 and -4.243 and -10.704 and -6.397 and -13.033; Fig. 1D dose-response, calcium mobilization response (individual replicate) (Concentration 6.25e-5 M): -3.167 and -3.420 and -21.978 and -8.518 and -4.898; Fig. 1D dose-response, calcium mobilization response (individual replicate) (Concentration 0.00025 M): -19.291 and -10.466 and -0.309 and -10.053 and -7.780; Fig. 1D dose-response, calcium mobilization response (individual replicate) (Concentration 0.0005 M): -6.623 and -13.594 and -13.062 and -8.352 and -18.691; Fig. 1D dose-response, calcium mobilization response (individual replicate) (Concentration 0.001 M): -11.685 and -12.391 and -8.163 and -15.688 and -9.331"
CC[C@]1(c2ccccc2)NC(=O)N(C)C1=O [(R)-mephenytoin],-28.494 and -0.685 and -28.419 and -1.368 and -39.430 and -16.800 and -4.015 and -27.858 and -25.726,-7.288 and -19.217 and -18.327 and -17.700 and -9.222 and -17.910 and -11.024 and -17.403 and -16.404,-4.806 and -21.809 and -22.673 and -18.368 and -20.701 and -10.218 and -45.398 and -2.556 and -1.333,-11.313 and -5.626 and -2.810 and -4.150 and -5.388 and -10.211 and -8.758 and -3.374 and -7.616,-13.282 and -38.673 and -86.390 and -55.539 and -30.274 and -52.531 and -40.546 and -63.168 and -34.632,-73.173 and -60.784 and -5.824 and -52.600 and -25.248 and -61.934 and -57.691 and -23.069 and -59.022,-77.603 and -4.145 and -51.921 and -55.448 and -9.903 and -68.319 and -36.832 and -68.498 and -28.339,-22.173 and -48.350 and -3.409 and -11.978 and -30.555 and -31.399 and -12.734 and -38.906 and -22.292,-56.927 and -11.154 and -10.026 and -28.148 and -45.428 and -4.530 and -28.870 and -12.606 and -36.630,-44.336 and -37.065 and -31.962 and -46.134 and -28.961 and -38.269 and -19.967 and -86.384 and -7.013,
CC[C@@]1(c2ccccc2)NC(=O)N(C)C1=O [(S)-mephenytoin],-20.370 and -28.895 and -20.737 and -16.113 and -11.794 and -17.288 and -8.111 and -30.820 and -18.667,-14.910 and -10.110 and -14.446 and -15.834 and -19.023 and -15.341 and -3.659 and -28.710 and -12.463,-18.478 and -17.267 and -18.784 and -17.855 and -11.934 and -14.257 and -17.051 and -23.967 and -8.270,-5.757 and -11.730 and -8.574 and 8.283 and -10.074 and -11.646 and -8.442 and -1.458 and -9.849,26.923 and 9.795 and -10.857 and -10.275 and -14.955 and -11.140 and -1.065 and -2.234 and -1.955,9.387 and -3.753 and 17.104 and -13.591 and -6.859 and -9.499 and -1.610 and -1.506 and -0.489,7.318 and 16.609 and 24.858 and -11.449 and -15.821 and -20.419 and 0.176 and 0.206 and 0.166,20.640 and 67.105 and 19.512 and -1.060 and 14.827 and -6.587 and 28.221 and 5.104 and 23.894,56.723 and 43.018 and 21.772 and 14.354 and 43.622 and 16.555 and 1.733 and 79.374 and 16.915,-10.031 and 14.167 and 0.209 and 8.392 and 6.582 and -2.785 and 5.320 and 0.368 and 2.580,
CNC[C@H](O)[C@@H](O)[C@H](O)[C@H](O)CO.CNC[C@H](O)[C@@H](O)[C@H](O)[C@H](O)CO.C[C@@H](O[C@H]1OCCN(Cc2nn(P(=O)(O)O)c(=O)[nH]2)[C@H]1c1ccc(F)cc1)c1cc(C(F)(F)F)cc(C(F)(F)F)c1 [Fosaprepitant dimeglumine],,,,,,,,,,,"EC50 (MRGPRX4 stably expressed HEK293 cells, calcium mobilization, read-out: EC50): 7 µM; Hill coefficient (dose-response curve fitting, table S1): 3.670"
